# Target: T1, cloned human dopamine D3 receptors (Homo sapiens, UniProt P35462)
# T1 construct: expressed in transfected cells; membrane homogenate
# Assay: [N-Methyl-3H]Spiroperidol binding to cloned human dopamine D3 receptors (Protocol 1)
# Settings: Table 2; read-out: D3K1
# Description: [N-Methyl-^3H]Spiroperidol Binding to Cloned Human Dopamine D3 Receptors
# This assay measures the in vitro activity of compounds on cloned human dopamine (D3) receptors and predicts the direct dopamine-blocking properties of putative neuropsychiatric agents at human dopamine D3 receptors.
# The D3 gene was isolated from a human striatal cDNA library (Stratagene). The gene was sequenced and sub-cloned into the expression vector RC/RSV (Invitrogen). CHO (Chinese Hamster Ovary) cells were stably transfected with 10 μg of the D3/RSV plasmid using the DOTAP method from Boehringer Mannheim and 72 clones that were G418 resistant were isolated. Using mRNA and binding displacement data a single high expressing clone was identified. This clone was then grown in large batches for the purpose of developing a 96 well format assay.
# • 1. One plate (10 cm) with approximately 2-3 million D3 cells per plate is incubated with 1 ml of Trypsin-EDTA at room temperature for ˜2 min or until cells have lifted off plates. Four ml of Ham's F12+10% Fetal Bovine Serum+1% Penicillin/Streptomycin+G418 (400 μg/ml) medium are added to resuspend cells and 1 ml of this is added to each large plate (15 cm) containing 19 ml of the-same medium as mentioned above. • 2. The 5 large plates are incubated at 37° C.+5% CO2 for ˜3 days or until the cells are confluent. • 3. After these plates are confluent, they are split into 10 large plates. Medium is aspirated off, 2 ml of Trypsin-EDTA are added to each plate and plates are incubated at RT for 2 min or until cells have lifted off the plate. Eight ml of the F12 medium (same medium as #1 above) are added to each plate (10 ml total) to resuspend the cells and 5 ml are transferred to the 2 new plates containing 15 ml of the F12 media. • 4. The 10 large plates are incubated at 37° C.+5% CO2 for ˜2 days or until the cells are confluent. • 5. The 10 large plates are split into 60 large plates (using Trypsin-EDTA as #3 except 4 ml of F12 medium are added to resuspend cells and 1 ml is aliquoted to 6 new plates containing 19 ml of F12 medium each). • 6. Plates are incubated at […]+5% CO2 for ˜3 days or until cell are confluent. • 7. The 60 large plates are then split into 60 roller bottles (100-150 million cells/bottle). Medium is aspirated off, 2 ml of Trypsin-EDTA are added to each plate and incubated at RT for ˜2 minutes or until cells have lifted off plates. Eight ml of F12 medium are added to each plate to resuspend cells and the entire 10 ml are added to 1 roller bottle containing 90 ml of the F12 medium. • 8. The 60 roller bottles are immediately placed on their sides and transferred to the roller bottle incubator. They are incubated at 37° C.+5% CO2 for ˜3-5 days. Cells are spun at 30-40% motor speed in the Forma incubator. • 9. Medium is poured off and cells are washed 2× in PBS. • 10. Cells are then scraped off in 20 ml of PBS and the bottles are rinsed again with 5 ml of PBS to remove any remaining cells. Cells are stored on ice before membrane preparation. • 11. The yield for 60 D3 roller bottles has varied from ˜260-500 mg. • Note: All tissue culture reagents are from Gibco-BRL. C. Membrane Preparation
# The cells are harvested into 250 ml centrifuge tubes with 100 volumes of cold phosphate buffered saline (PBS) and spun down (1200×G for 10 min at 4° C.). The medium is removed and 100 ml PBS are added to each centrifuge tube, cells are resuspend and spun down again. The PBS is removed and the final pellet is homogenized in an appropriate volume of 10% DMSO with a polytron on ice at a medium setting.
# 1. 0.5M Tris Buffer, pH 7.7 • a) 44.4 g Tris HCl 26.5 g Tris Base q.s. to 1 Liter (0.5 M Tris buffer, pH 7.7 at 37° C.) • b) make a 1:10 dilution in distilled H2O (0.05 M. Tris buffer, pH 7.7) 2. Tris Buffer Containing Physiological Salts • a) Stock buffer • NaCl 7.014 g • KCl 0.372 g • CaCl2 0.222 g • MgCl2 0.204 g • q.s. To 100 ml with 0.5 M. Tris Buffer • b) Dilute 1:10 in distilled H2O […]
# T1 sequence (P35462 whole entry): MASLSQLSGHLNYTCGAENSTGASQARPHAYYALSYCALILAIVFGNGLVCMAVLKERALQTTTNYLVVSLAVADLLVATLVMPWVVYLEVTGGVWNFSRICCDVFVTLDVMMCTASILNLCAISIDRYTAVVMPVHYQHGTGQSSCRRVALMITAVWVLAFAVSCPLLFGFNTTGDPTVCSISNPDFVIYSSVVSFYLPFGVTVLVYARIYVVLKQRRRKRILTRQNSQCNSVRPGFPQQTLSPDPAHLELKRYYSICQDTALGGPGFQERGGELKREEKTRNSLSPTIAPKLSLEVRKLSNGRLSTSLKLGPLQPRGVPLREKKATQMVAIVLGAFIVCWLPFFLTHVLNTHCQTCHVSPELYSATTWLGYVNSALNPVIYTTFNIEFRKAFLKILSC
row,Ki [nM],SMILES
1,6.44,Nc1ccc(O)cc1C(=O)NCCCCN1CCCN(c2csc3cc(F)ccc23)CC1 [compound 817264]
2,263,O=C(NCCCCN1CCN(c2c(-c3ccccc3)sc3cc(F)ccc23)CC1)c1cc2ccccc2s1 [compound 815873]

# The remaining lines, values behind:
row,SMILES,Ki [nM]
1,O=C(NCCCCN1CCN(c2c(-c3ccccc3)sc3cc(F)ccc23)CC1)c1cccs1 [compound 815879],292
2,O=C(NC/C=C/CN1CCN(c2csc3cc(C(F)(F)F)ccc23)CC1)C1(c2ccccc2)CC1 [compound 827740],397
3,O=C(N[C@@H](CO)CCCN1CCN(c2csc3cc(C(F)(F)F)ccc23)CC1)c1ccc(Br)cc1 [compound 815679],129
4,O=C(NCCCN1CCCN(c2csc3cc(F)ccc23)CC1)c1ccc2ccccc2c1 [compound 827139],131
5,CC(=O)C1CC(CC(=O)NC/C=C\CN2CCN(c3csc4cc(C(F)(F)F)ccc34)CC2)C1(C)C (stereo not shown) [compound 827737],108

# Same assay, conditions: read-out: D3K1
row,Ki [nM],SMILES
1,6.48,O=C(NCCCCCN1CCN(c2csc3cc(C(F)(F)F)ccc23)CC1)c1ccc2[nH]ccc2c1 [compound 826799]
2,1.7,O=C(NCCCCCCN1CCN(c2csc3cc(C(F)(F)F)ccc23)CC1)c1ccc2cc[nH]c2c1 [compound 826742]
3,53,COc1ccccc1C(=O)NCCCCN1CCN(c2c(Cl)sc3cc(C(F)(F)F)ccc23)CC1 [compound 815574]
4,11.1,O=C(NCCCCCN1CCN(c2csc3cc(C(F)(F)F)ccc23)CC1)c1cc2ccccc2[nH]1 [compound 826794]

# More lines, now with the values behind:
row,SMILES,Ki [nM]
1,O=C(NCCCCCCN1CCN(c2csc3cc(C(F)(F)F)ccc23)CC1)c1cccc2[nH]ccc12 [compound 826741],9.8
2,CC1(C)C(CNC(=O)c2cccc(F)c2)C1CN1CCN(c2csc3cc(C(F)(F)F)ccc23)CC1 (stereo not shown) [compound 826274],67
3,O=C(NCCCCN1CCN(c2c(Cl)sc3cc(C(F)(F)F)ccc23)CC1)c1cccs1 [compound 815566],32
4,CC1(C)C(CNC(=O)C2CC2c2ccccc2)C1CN1CCN(c2csc3cc(C(F)(F)F)ccc23)CC1 (mixture of isomers) [compound 826283],6.8
5,O=C(NCCCCCN1CCN(c2csc3cc(C(F)(F)F)ccc23)CC1)c1ccc2ccccc2c1 [compound 826769],7
6,O=C(NC/C=C/CN1CCN(c2csc3cc(C(F)(F)F)ccc23)CC1)C1CCCC1 [compound 827712],66
7,O=C(N[C@@H](CO)CCCN1CCN(c2csc3cc(C(F)(F)F)ccc23)CC1)c1ccc(Br)cc1 [compound 815679],129
8,COc1ccc2[nH]c(C(=O)NC[C@@H]3CCCC[C@H]3CN3CCN(c4csc5cc(C(F)(F)F)ccc45)CC3)cc2c1 [compound 826284],77
9,CC1(C)C(CNC(=O)c2ccc(F)cc2)C1CN1CCN(c2csc3cc(C(F)(F)F)ccc23)CC1 (stereo not shown) [compound 826273],51
10,O=C(NCCCCCCN1CCN(c2csc3cc(C(F)(F)F)ccc23)CC1)c1cccs1 [compound 826746],0.8
11,O=C(NC/C=C/CN1CCN(c2csc3cc(C(F)(F)F)ccc23)CC1)c1ccccn1 [compound 827713],65

# Same assay, conditions: the 13th table, unit inferred; read-out: D3Ki
row,Ki [nM],SMILES
1,151,CSc1nsc(SC)c1C(=O)NCCCCN1CCCN(c2csc3cc(C(F)(F)F)ccc23)CC1 [S980661]
2,1.85,O=C(NCCCCN1CCCN(c2csc3cc(F)ccc23)CC1)c1cc2ccccc2[nH]1 [S977818]
3,6.5,COc1cccc(C(=O)NCCCCN2CCCN(c3csc4cc(F)ccc34)CC2)c1 [compound 822197]
4,5.9,COc1cccc(CC(=O)NCCCCN2CCCN(c3csc4cc(F)ccc34)CC2)c1 [S982510]
5,0.8,O=C(NCCCCN1CCCN(c2csc3cc(F)ccc23)CC1)c1ccc2c(c1)S(=O)(=O)c1ccccc1C2=O [S982539]
6,100,O=C(NCCCCN1CCCN(c2csc3cc(C(F)(F)F)ccc23)CC1)c1cccc2ccccc12 [S980631]
7,2.72,O=C(NCCCCN1CCCN(c2csc3cc(F)ccc23)CC1)c1ccccc1I [S981851]
8,6.41,O=C(NCCCCCN1CCCN(c2csc3cc(F)ccc23)CC1)c1cc2sccc2s1 [S984502]

# Continued, molecule first:
row,SMILES,Ki [nM]
1,Cn1cccc1C(=O)NCCCCN1CCCN(c2csc3cc(F)ccc23)CC1 [S977828],6.97
2,Cc1oc(-c2ccccc2)cc1C(=O)NCCCCN1CCCN(c2csc3cc(F)ccc23)CC1 [S981839],1.4

# Same assay, conditions: the 14th table; read-out: D3 Ki
row,Ki [nM],SMILES
1,6.48,O=C(NCCCCCN1CCN(c2csc3cc(C(F)(F)F)ccc23)CC1)c1ccc2[nH]ccc2c1 [compound 826799]
2,1.7,O=C(NCCCCCCN1CCN(c2csc3cc(C(F)(F)F)ccc23)CC1)c1ccc2cc[nH]c2c1 [compound 826742]
3,11.1,O=C(NCCCCCN1CCN(c2csc3cc(C(F)(F)F)ccc23)CC1)c1cc2ccccc2[nH]1 [compound 826794]

# Continued, molecule first:
row,SMILES,Ki [nM]
1,O=C(NCCCCCCN1CCN(c2csc3cc(C(F)(F)F)ccc23)CC1)c1cccc2[nH]ccc12 [compound 826741],9.8
2,O=C(NCCCCCN1CCN(c2csc3cc(C(F)(F)F)ccc23)CC1)c1ccc2ccccc2c1 [compound 826769],7
3,O=C(N[C@@H](CO)CCCN1CCN(c2csc3cc(C(F)(F)F)ccc23)CC1)c1ccc(Br)cc1 [compound 815679],129
4,O=C(NCCCCCCN1CCN(c2csc3cc(C(F)(F)F)ccc23)CC1)c1cccs1 [compound 826746],0.8
5,COc1ccc2[nH]c(C(=O)NCCCCCN3CCN(c4csc5cc(F)ccc45)CC3)cc2c1 [compound 826785],1.43

# Same assay, conditions: the 15th table; read-out: D3 Ki
row,SMILES,Ki [nM]
1,O=C(NCCCCN1C2CCC1CC(c1noc3cc(F)ccc13)C2)c1ccc(-c2ccccc2)cc1 (stereo not shown) [compound 816331],44.2
2,CCCCOc1ccc(C(=O)NCCCCN2C3CCC2CC(c2noc4cc(F)ccc24)C3)cc1 (stereo not shown) [compound 816325],58.3
3,CSc1ncccc1C(=O)NCCCCN1C2CCC1CC(c1noc3ccccc13)C2 (stereo not shown) [compound 816541],511
4,O=C(NCCCCN1C2CCC1CC(c1noc3ccccc13)C2)c1cc2ccccc2s1 (stereo not shown) [compound 816535],66.4
5,Cc1ccc(C(=O)NCCCCN2C3CCC2CC(c2noc4cc(F)ccc24)C3)cc1 (stereo not shown) [compound 816344],378
6,O=C(NCCCCN1C2CCC1CC(c1noc3ccccc13)C2)C1CCCCC1 (stereo not shown) [compound 816524],357
7,O=C(NCCCCN1C2CCC1CC(c1noc3ccccc13)C2)c1ccccc1[N+](=O)[O-] (stereo not shown) [compound 816537],411

# Same assay, conditions: the 16th table; read-out: D3 Ki
row,Ki [nM],SMILES
1,6.44,Nc1ccc(O)cc1C(=O)NCCCCN1CCCN(c2csc3cc(F)ccc23)CC1 [compound 817264]
2,131,O=C(NCCCN1CCCN(c2csc3cc(F)ccc23)CC1)c1ccc2ccccc2c1 [compound 827139]

# Same assay, conditions: the 18th table; read-out: D3 Ki
row,Ki [nM],SMILES
1,94,O=C(NCc1sccc1CN1CCN(c2csc3cc(F)ccc23)CC1)c1cccc(C(F)(F)F)c1 [compound 826301]
2,47,COc1cccc(C(=O)NCc2sccc2CN2CCN(c3csc4cc(F)ccc34)CC2)c1 [compound 826307]
3,32,O=C(NCc1sccc1CN1CCN(c2csc3cc(F)ccc23)CC1)c1csc(-c2cccnc2)n1 [compound 826316]

# The remaining lines, values behind:
row,SMILES,Ki [nM]
1,O=C(NCc1sccc1CN1CCN(c2csc3cc(F)ccc23)CC1)c1cccc2[nH]ccc12 [compound 826326],71
2,Cc1ccccc1C(=O)NCc1sccc1CN1CCN(c2csc3cc(F)ccc23)CC1 [compound 826306],89
3,O=C(NCc1sccc1CN1CCN(c2csc3cc(F)ccc23)CC1)c1ccncc1 [compound 826312],29

# Same assay, conditions: the 21st table; read-out: D3 Ki
row,Ki [nM],SMILES
1,81.2,C[C@@H]1CN(c2csc3cc(C(F)(F)F)ccc23)C[C@H](C)N1CCCCNC(=O)c1cc2ccccc2n1C [compound 826950]

# Same assay, conditions: the 22nd table; read-out: D3 Ki
row,Ki [nM],SMILES
1,14.7,O=C(NCCCCN1CCN(c2noc3ccsc23)CC1)c1ccc(-c2ccccc2)cc1 [compound 829680]
2,10.4,O=C(NCCCCN1CCN(c2nn(C(=O)c3cc4ccccc4s3)c3ccsc23)CC1)c1cc2ccccc2s1 [compound 825164]

# Same assay, conditions: the 23rd table; read-out: D3 Ki
row,Ki [nM],SMILES
1,151,CC[C@H]1CC[C@H](NC[C@@H]2C[C@H]2CN2CCN(c3c(Cl)sc4cc(C(F)(F)F)ccc34)CC2)CC1 [compound 832329]
2,16,FC(F)(F)Oc1cccc(CNCC2CC2CN2CCN(c3csc4cc(C(F)(F)F)ccc34)CC2)c1 (racemic) [compound 832181]

# Same assay, conditions: the 26th table; read-out: D3 Ki
row,Ki [nM],SMILES
1,161,OC(CCN1CCC(c2noc3ccsc23)CC1)CN1CCc2ccccc2C1 (stereo not shown) [compound 831941]
